Test results as given in publication PMC8962522, “Direct interaction of TrkA/CD44v3 is essential for NGF-promoted aggressiveness of breast cancer cells” (Journal of Experimental & Clinical Cancer Research : CR, 2022).

System: MDA-MB-468 cells
Test: Transwell invasion assay through collagen I, MDA-MB-468
Assay type: cell-based
Conditions: collagen 1 Transwell, 16 h after treatment; "these effects" = decrease in basal and NGF-induced invasion
Description: Transwell invasion assays were performed to assess cancer cell invasion in a Transwell chamber containing a collagen I-coated membrane (12-wells with inserts and […] pore size membranes; Corning, Life Sciences). A total of 1 × 10^6 starved cells (0.1% in SVF medium) were plated in the top chamber and incubated for 10 min before treatment with a peptide (50 ng/mL for 30 min); NGF was added to the lower chamber. […] and stained with Hoechst 33258 (1 mg/mL) for 30 min, and the cells that invaded the lower surface through the pores of the inserts were automatically counted under an inverted microscope with ImageJ software (with an in-house-developed plug-in).
Supplementary file 13046_2022_2314_MOESM3_ESM.pdf: Additional file 3: Supplementary Figure 1. Validation of the ectopic expression of CD44 and/or TrkA in COS-7 cells. The expression of all CD44 isoforms (A), CD44 variant 3 (B), CD44 variant 6 (C) and TrkA ([…]; D) was evaluated by RT–qPCR (normalized using PUM-1). No expression of CD44, CD44 variants [3 or 6] or TrkA was detected in COS-7 cells (A-D) compared with that in cells transfected with the expression plasmid carrying each protein. […] Quantification of the PLA results was performed using ImageJ software (30 randomly chosen fields per condition of three different experiments). […] CD44v3 and CD44v6 levels at the plasma membrane were assessed by flow cytometry (A-D). […]

## IDDDEDFISST [Peptide 4, mimetic peptide 4 (…) corresponding to the C-terminal region of CD44v3]
  effect on invasion of MDA-MB-468 cells: These effects on invasion were also observed in the MDA-MB-468 triple-negative breast cancer cell line
